For 16 compounds, pest or weed control results are on record in patent US8865623B2, “Herbicidally active cyclic diones and derivatives thereof, processes for their preparation, compositions, and method of controlling weeds” (Syngenta Limited, priority 2009, dated 2014).

Format in all cases: in vivo
Assay [1] concerns Lolium perenne (LOLPE). In words: Pre-emergence herbicidal activity, glasshouse pot test. The note with it: Lolium perenne, 312 h; Rate 250 g/ha; pre-emergence spray; evaluated after 13 days; read-out: Pre-emergence activity LOLPE (100=total damage to plant; 0=no damage to plant). In outline:
(§1)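 Visual damage (0 = no damage, 100 = total damage) was rated 13 days after spraying. Treatment was applied one day after sowing for pre-emergence, or after 8 days of cultivation for post-emergence, as aqueous spray of an acetone/water (50:50) formulation with 0.5% Tween 20.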

The subject of assay [2] is Avena fatua (AVEFA). The assay is described as above. The note with it: Avena fatua, 312 h; Rate 250 g/ha; pre-emergence spray; evaluated after 13 days; read-out: Pre-emergence activity AVEFA (100=total damage to plant; 0=no damage to plant). An outline of the steps: as §1
In assay [3] the test system is Echinochloa crus-galli (ECHCG). Described as above. The note with it: Echinochloa crus-galli, 312 h; Rate 250 g/ha; pre-emergence spray; evaluated after 13 days; read-out: Pre-emergence activity ECHCG (100=total damage to plant; 0=no damage to plant). In outline: as §1
Assay [4] relates to Alopecurus myosuroides (ALOMY). Described as above. The conditions noted are these: Alopecurus myosuroides, 312 h; Rate 250 g/ha; pre-emergence spray; evaluated after 13 days; read-out: Pre-emergence activity ALOMY (100=total damage to plant; 0=no damage to plant). An outline of the steps:
as §1

For assay [5], the system named is Lolium perenne (LOLPE). In words: Post-emergence herbicidal activity, glasshouse pot test. The conditions noted are these: Lolium perenne, 312 h, rate 250 g/ha, evaluated after 13 days, glasshouse, read-out: Post-emergence activity LOLPE (100=total damage to plant; 0=no damage to plant). An outline of the steps:
as §1

The subject of assay [6] is Avena fatua (AVEFA). Described as above. The conditions noted are these: Avena fatua, 312 h, rate 250 g/ha, evaluated after 13 days, glasshouse, read-out: Post-emergence activity AVEFA (100=total damage to plant; 0=no damage to plant). In outline: as §1
Assay [7] concerns Echinochloa crus-galli (ECHCG). The description is as above. The conditions noted are these: Echinochloa crus-galli, 312 h, rate 250 g/ha, evaluated after 13 days, glasshouse, read-out: Post-emergence activity ECHCG (100=total damage to plant; 0=no damage to plant). In outline: as §1
The test system of assay [8] is Alopecurus myosuroides (ALOMY). Described as above. The conditions noted are these: Alopecurus myosuroides, 312 h, rate 250 g/ha, evaluated after 13 days, glasshouse, read-out: Post-emergence activity ALOMY (100=total damage to plant; 0=no damage to plant). In outline:
as §1

For the compound `CCc1ccc(Oc2nc(F)c(Cl)c(OC)c2Cl)cc1C1=C(O)C(C)(C)OC(C)(C)C1=O` [Example A-222], the pest or weed control at 250 g/ha was 0% in the assay on Lolium perenne (LOLPE) [1]; 0% in the assay with Avena fatua (AVEFA) [2]; 0% in assay [3]; 0% in assay [4]; 30% in the assay with Lolium perenne (LOLPE) [5]; 20% in the assay on Avena fatua (AVEFA) [6]. The pest or weed control at 250 g/ha in assay [7] was found to be 30%; in assay [8], 20%.
For the compound `CCc1ccc(Oc2ccc3ccccc3n2)cc1C1=C(O)C(C)(C)OC(C)(C)C1=O` [Example A-223], the pest or weed control at 250 g/ha with Lolium perenne (LOLPE) [1] came to 90%; with Avena fatua (AVEFA) [2], 50%; in assay [3], 100%; in assay [4] it was 80%; with Lolium perenne (LOLPE) [5], 90%; with Avena fatua (AVEFA) [6] it was 60%. In addition, the pest or weed control at 250 g/ha in assay [7] and in assay [8] was 100% each time.
Regarding `CCc1ccc(Oc2ccc(Cl)cc2C#N)cc1C1=C(O)C(C)(C)OC(C)(C)C1=O` [Example A-224], the pest or weed control at 250 g/ha came out at 30% with Lolium perenne (LOLPE) [1]; 10% with Avena fatua (AVEFA) [2]; 20% in assay [3]; 20% in assay [4]; 70% in the assay with Lolium perenne (LOLPE) [5]; 50% with Avena fatua (AVEFA) [6]. Also, the pest or weed control at 250 g/ha stood at 70% in assay [7] and 50% in assay [8].
Regarding `CCc1ccc(Oc2ccc(Br)cc2C#N)cc1C1=C(O)C(C)(C)OC(C)(C)C1=O` [Example A-225], the pest or weed control at 250 g/ha with Lolium perenne (LOLPE) [1] was 10%; with Avena fatua (AVEFA) [2], 0%; in assay [3], 60%; in assay [4], 0%; in the assay with Lolium perenne (LOLPE) [5] it was 70%; in the assay with Avena fatua (AVEFA) [6], 50%. The results for the pest or weed control at 250 g/ha in assay [7] and in assay [8] were 90% and 60%, respectively.
For `CCc1ccc(Oc2ccc(Cl)cc2[N+](=O)[O-])cc1C1=C(O)C(C)(C)OC(C)(C)C1=O` [Example A-226], the pest or weed control at 250 g/ha with Lolium perenne (LOLPE) [1] came out at 30%; with Avena fatua (AVEFA) [2], 10%; in assay [3], 60%; in assay [4] it was 0%; in the assay on Lolium perenne (LOLPE) [5] it was 60%; with Avena fatua (AVEFA) [6], 60%. For the same compound, the pest or weed control at 250 g/ha came out at 100% in assay [7] and 60% in assay [8].
Turning to `CCc1ccc(Oc2ccc(Br)cc2[N+](=O)[O-])cc1C1=C(O)C(C)(C)OC(C)(C)C1=O` [Example A-227], the pest or weed control at 250 g/ha in the assay on Lolium perenne (LOLPE) [1] is 60%; in the assay on Avena fatua (AVEFA) [2], 20%; in assay [3] it was 80%; in assay [4], 30%; in the assay with Lolium perenne (LOLPE) [5], 70%; in the assay with Avena fatua (AVEFA) [6], 60%. Also, the pest or weed control at 250 g/ha amounted to 90% in assay [7] and 70% in assay [8].
For the compound `CCc1ccc(Oc2nc3cc(Cl)ccc3s2)cc1C1=C(O)C(C)(C)OC(C)(C)C1=O` [Example A-229], the pest or weed control at 250 g/ha with Lolium perenne (LOLPE) [1] is 60%; in the assay with Avena fatua (AVEFA) [2], 0%; in assay [3], 70%; in assay [4] it was 30%; in the assay with Lolium perenne (LOLPE) [5], 100%; with Avena fatua (AVEFA) [6] it was 10%. Besides, the pest or weed control at 250 g/ha in assay [7] is 100%; in assay [8], 90%.
For the compound `CCc1ccc(Oc2ccc(F)cc2[N+](=O)[O-])cc1C1=C(O)C(C)(C)OC(C)(C)C1=O` [Example A-230], the pest or weed control at 250 g/ha came out at 0% in the assay with Lolium perenne (LOLPE) [1]; 0% in the assay with Avena fatua (AVEFA) [2]; 20% in assay [3]; 0% in assay [4]; 40% in the assay on Lolium perenne (LOLPE) [5]; 60% in the assay on Avena fatua (AVEFA) [6]. Also, the pest or weed control at 250 g/ha is 80% in assay [7] and 20% in assay [8].
In the case of `CCc1ccc(Oc2cnc3cc(Cl)ccc3n2)cc1C1=C(O)CC2(CCOCC2)CC1=O` [Example A-233], the pest or weed control at 250 g/ha in the assay on Lolium perenne (LOLPE) [1] stood at 90%; in the assay on Avena fatua (AVEFA) [2] it was 70%; in assay [3] it was 100%; in assay [4] it was 70%; with Lolium perenne (LOLPE) [5], 100%; with Avena fatua (AVEFA) [6] it was 100%. For the same compound, the pest or weed control at 250 g/ha in assay [7] and in assay [8] was 100% throughout.
Take `CCc1ccc(Oc2ccc(Br)cc2)cc1C1=C(O)[C@@H]2CC[C@](C)(C1=O)C2(C)C` [Example A-234]: the pest or weed control at 250 g/ha is 90% with Lolium perenne (LOLPE) [1]; 40% in the assay with Avena fatua (AVEFA) [2]; 100% in assay [3]; 70% in assay [4]; 80% with Lolium perenne (LOLPE) [5]; 90% with Avena fatua (AVEFA) [6]. Also, the pest or weed control at 250 g/ha in assay [7] worked out at 100%; in assay [8] it was 80%.
For the compound `CCc1ccc(Oc2ccc3cc(Cl)ccc3n2)cc1C1=C(O)[C@@H]2CC[C@](C)(C1=O)C2(C)C` [Example A-235], the pest or weed control at 250 g/ha worked out at 70% in the assay with Lolium perenne (LOLPE) [1]; 30% with Avena fatua (AVEFA) [2]; 100% in assay [3]; 50% in assay [4]; 100% in the assay on Lolium perenne (LOLPE) [5]; 100% with Avena fatua (AVEFA) [6]. The pest or weed control at 250 g/ha is 100% in assay [7] and 90% in assay [8].
Consider `CCc1ccc(Oc2nc3ccc(Cl)cc3[n+]([O-])n2)cc1C1=C(O)C(C)(C)OC(C)(C)C1=O` [Example A-236], for which the pest or weed control at 250 g/ha with Lolium perenne (LOLPE) [1] turned out to be 20%; in the assay on Avena fatua (AVEFA) [2], 20%; in assay [3], 80%; in assay [4] it was 40%; in the assay with Lolium perenne (LOLPE) [5], 30%; with Avena fatua (AVEFA) [6], 100%. In addition, the pest or weed control at 250 g/ha in assay [7] and in assay [8] was 100% throughout.
`CCc1ccc(Oc2nnc3cc(Cl)ccc3n2)cc1C1=C(O)C(C)(C)OC(C)(C)C1=O` [Example A-237]: the pest or weed control at 250 g/ha is 20% with Lolium perenne (LOLPE) [1]; 10% with Avena fatua (AVEFA) [2]; 40% in assay [3]; 10% in assay [4]; 10% in the assay with Lolium perenne (LOLPE) [5]; 10% with Avena fatua (AVEFA) [6]. Also, the pest or weed control at 250 g/ha was found to be 70% in assay [7] and 10% in assay [8].
Consider `CCc1ccc(Oc2ccc(Br)cc2F)cc1C1=C(O)[C@@H]2CC[C@](C)(C1=O)C2(C)C` [Example A-238], for which the pest or weed control at 250 g/ha in the assay with Lolium perenne (LOLPE) [1] worked out at 90%; in the assay with Avena fatua (AVEFA) [2], 40%; in assay [3] it was 100%; in assay [4] it was 60%; in the assay with Lolium perenne (LOLPE) [5], 90%; with Avena fatua (AVEFA) [6], 90%. For the same compound, the pest or weed control at 250 g/ha in assay [7] turned out to be 100%; in assay [8], 70%.
With `CCc1ccc(Oc2ccc(F)cc2)cc1C1=C(O)[C@@H]2CC[C@](C)(C1=O)C2(C)C` [Example A-239], the pest or weed control at 250 g/ha with Lolium perenne (LOLPE) [1] turned out to be 60%; in the assay on Avena fatua (AVEFA) [2], 0%; in assay [3] it was 90%; in assay [4] it was 20%; in the assay on Lolium perenne (LOLPE) [5], 30%; in the assay with Avena fatua (AVEFA) [6] it was 10%. Besides, the pest or weed control at 250 g/ha in assay [7] amounted to 70%; in assay [8], 20%.
As to `CCc1ccc(Oc2ccc(Br)cc2Cl)cc1C1=C(O)[C@@H]2CC[C@](C)(C1=O)C2(C)C` [Example A-240], the pest or weed control at 250 g/ha was 70% with Lolium perenne (LOLPE) [1]; 0% in the assay with Avena fatua (AVEFA) [2]; 70% in assay [3]; 30% in assay [4]; 60% in the assay with Lolium perenne (LOLPE) [5]; 40% in the assay on Avena fatua (AVEFA) [6]. The pest or weed control at 250 g/ha was 70% in assay [7] and 30% in assay [8].
